Earlier results as cited in patent US20110060000A1, “ACRIDINE ANALOGS IN THE TREATMENT OF GLIOMAS” (priority 2009, published 2011).

System: gliomas
Details: in association with established anti-glioma medications; cited from earlier work

Structure (SMILES): CCN(CC)CCCC(C)Nc1ccnc2cc(Cl)ccc12 (stereo not shown) [Chloroquine]
- patient survival: patient survival was significantly prolonged
